Experimental data: patent US20120094919A1, “USE OF TRIPEPTIDES” (priority 2009, published 2012)

Experiments:
Type in all cases: cell-based
Settings in all cases: 3 days incubation
[1] = test system: Hyaluronan synthesis in normal human fibroblasts (NHF); assay: Hyaluronan synthesis in normal human fibroblasts (Hyaluronan Assay Kit)
Method: Normal human fibroblasts (NHF) were seeded in 96 well cell culture plates (Nunclon). After three days of growth a tripeptide derivative of the present invention was added in medium without FCS and the cells were incubated for an additional three days. Secreted Hyaluronan synthesis in the growth medium was measured using the Hyaluronan Assay Kit from Echelon (Salt Lake City, Utah).
(§1) The results were evaluated relative to a control consisting of cells that have not been treated with the tripeptide derivative of formula (I) and which is set to 100%.

[2] = test system: Lumican synthesis in normal human fibroblasts (NHF); assay: Lumican synthesis in normal human fibroblasts (EIA)
Method: (§2) Normal human fibroblasts (NHF) were grown in 96 well culture plates (Nunclon). After three days a tripeptide derivative of the present invention was added in medium without FCS and the cells were incubated for an additional three days. To measure Lumican synthesis an enzyme linked immunoassay (EIA) was performed. In brief: the cells were fixed with 4% paraformaldehyde, and permeabilized with 0.5 Triton-X100 followed by blocking of unspecific binding sites with 5% skim milk. To stain for Lumican the cells were incubated with goat-anti-Lumican (L-20) antibody (Santa Cruz Biotechnology, sc-27718) which was detected with goat-anti-mouse HRP conjugated (Pierce) secondary antibody. After addition of substrate Lumican synthesis was measured at 492 nm in an absorbance plate reader (Multiskan Ascent, Thermolabsystems).
as §1

[3] = test system: Decorin synthesis in normal human fibroblasts (NHF); assay: Decorin synthesis in normal human fibroblasts (EIA)
Method: as §2, with “well cell” for “well”, “Decorin” for “Lumican”, “goat-anti-Decorin” for “goat-anti-Lumican (L-20)”, “(R&Dsystems)” for “(Santa Cruz Biotechnology, sc-27718)”, “rabbit-anti-goat” for “goat-anti-mouse”
as §1

[4] = 100 μM, relative to untreated control
[5] = 25 μM, untreated control = 100%
[6] = 50 μM, untreated control = 100%
[7] = 10 μM, untreated control = 100%
[8] = 12.5 μM, untreated control = 100%

| Substance | Synthesis Stimulation of Hyaluronan [1, 4] | Synthesis Stimulation of Lumican [2, 4] | Synthesis Stimulation of Decorin [3, 4] | Synthesis Stimulation of Hyaluronan [1, 5] [%] | further results |
| --- | --- | --- | --- | --- | --- |
| Caprinoyl-Lys-Val-Lys-OH*2TFA [Tripeptide No 13] | inactive | inactive | inactive |  |  |
| H-Lys-Val-Lys-OH *3 TFA [Tripeptide No 15] | inactive | inactive | inactive |  |  |
| Lauroyl-Lys-Val-Lys-OH*2TFA [Tripeptide No 12] | inactive | inactive | inactive |  |  |
| Myristoyl-Lys-Val-Lys-OH*2TFA [Tripeptide No 11] | inactive | inactive | inactive |  |  |
| Palm-Lys-Ile-Dab-OH *2TFA [Tripeptide No 4] |  |  |  | 180 |  |
| Palm-Lys-Leu-Dab-OH *2TFA [Tripeptide No 6] |  |  |  |  | Synthesis Stimulation of Hyaluronan [1, 6]: 220% |
| Palm-Lys-Leu-Lys-OH *2 TFA [Tripeptide No 3] |  |  |  | 180 |  |
| Palm-Lys-Nva-Dab-OH *2TFA [Tripeptide No 5] |  |  |  | 220 |  |
| Palm-Lys-Val-Dab-NH-Hexadecyl *2 TFA [Tripeptide No 7] |  |  |  | 300 |  |
| Palm-Lys-Val-Dab-OH *2 TFA [Tripeptide No 18] | inactive | inactive | inactive |  |  |
| Palm-Lys-Val-Dap-OH *2 TFA [Tripeptide No 17] | inactive | inactive | inactive |  |  |
| Palm-Lys-Val-Lys-OH *2 TFA [Tripeptide No 1] |  |  |  |  | Synthesis Stimulation of Hyaluronan [1, 7]: 220%; Synthesis Stimulation of Lumican [2, 7]: 120%; Synthesis Stimulation of Decorin [3, 5]: 200%/25 μM |
| Palm-Lys-Val-Orn-OH *2 TFA [Tripeptide No 16] | inactive | inactive | inactive |  |  |
| Palm-Orn-Val-Lys-OH *2 TFA [Tripeptide No 2] |  |  |  |  | Synthesis Stimulation of Hyaluronan [1, 6]: 180% |
| Stearoyl-Lys-Val-Lys-OH*2TFA [Tripeptide No 14] | inactive | inactive | inactive |  |  |
| Tetradecyl-NH—C(O)-Arg-Val-Arg-OH *2 TFA [Tripeptide No 10] |  |  |  | 220 |  |
| Tetradecyl-NH—C(O)-Dab-Val-Dab-OH *2 TFA [Tripeptide No 8] |  |  |  |  | Synthesis Stimulation of Hyaluronan [1, 8]: 400%; Synthesis Stimulation of Lumican ([2]; 100 μM, untreated control = 100%): 165%/100 μM; Synthesis Stimulation of Decorin [3, 8]: 170% |
| Tetradecyl-NH—C(O)-Lys-Ile-Dab-OH *2 TFA [Tripeptide No 9] |  |  |  | 220 |  |
